Experimental data from ChEMBL document CHEMBL4368855, “Novel tricyclic glycal-based TRIB1 inducers that reprogram LDL metabolism in hepatic cells” (Medchemcomm, 2018).
Converted amounts (≈) assume the structure as drawn.

Assays:
[1] = AUC (infinity) in C57BL/6 mouse liver at 10 mg/kg, ip administered as single dose by mass spectrometry; format: ADME, organism-based; parameters: dose 10 mg/kg, route intraperitoneal, time infinity; settings: in vivo
[2] = Stability in mouse liver microsomes assessed as parent compound remaining at 1 uM incubated for 60 mins under shaking condition by UPLC/MS analysis; format: ADME, Microsome; settings: read-out: Stability
[3] = Cmax in C57BL/6 mouse plasma at 10 mg/kg, ip administered as single dose by mass spectrometry; format: ADME, organism-based; parameters: dose 10 mg/kg, route intraperitoneal
[4] = Solubility of the compound in 1% DMSO/phosphate buffered saline at pH 7.4 incubated for 18 hrs under shaking condition by UPLC/MS analysis; format: physicochemical
HepG2 [5] = assay: Up regulation of TRIB1 gene expression in human HepG2 cells measured after 6 hrs by qRT-PCR analysis relative to control; format: functional
[6] = Apparent volume of distribution in C57BL/6 mouse liver at 10 mg/kg, ip administered as single dose by mass spectrometry; format: ADME, organism-based; settings: in vivo
[7] = Half life in C57BL/6 mouse plasma at 10 mg/kg, ip administered as single dose by mass spectrometry; format: ADME, organism-based
[8] = Clearance in C57BL/6 mouse plasma at 10 mg/kg, ip administered as single dose by mass spectrometry; format: ADME, organism-based
HepG2 [9] = assay: Down regulation of PCSK9 gene expression in human HepG2 cells measured after 24 hrs by qRT-PCR analysis; format: functional, cell-based; settings: HepG2, 24 h
HepG2 [10] = assay: Up regulation of LDLR gene expression in human HepG2 cells measured after 6 hrs by qRT-PCR analysis relative to control; format: functional
[11] = Half life in C57BL/6 mouse liver at 10 mg/kg, ip administered as single dose by mass spectrometry; format: ADME, organism-based
[12] = Tmax in C57BL/6 mouse liver at 10 mg/kg, ip administered as single dose by mass spectrometry; format: ADME, organism-based
[13] = Unbound fraction in C57BL/6 mouse liver at 10 mg/kg, ip administered as single dose by mass spectrometry; format: ADME, organism-based
[14] = Cmax in C57BL/6 mouse liver at 10 mg/kg, ip administered as single dose by mass spectrometry; format: ADME, organism-based; parameters: dose 10 mg/kg, route intraperitoneal
[15] = AUC (infinity) in C57BL/6 mouse plasma at 10 mg/kg, ip administered as single dose by mass spectrometry; format: ADME, organism-based; parameters: dose 10 mg/kg, route intraperitoneal, time infinity; settings: in vivo
HepG2 [16] = assay: Up regulation of TRIB1 gene expression in human HepG2 cells measured after 6 hrs by qRT-PCR analysis; format: functional, cell-based; settings: HepG2, 6 h
HepG2 [17] = assay: Up regulation of LDLR gene expression in human HepG2 cells measured after 6 hrs by qRT-PCR analysis; format: functional, cell-based; settings: HepG2, 6 h
[18] = Tmax in C57BL/6 mouse plasma at 10 mg/kg, ip administered as single dose by mass spectrometry; format: ADME, organism-based
[19] = Apparent volume of distribution in C57BL/6 mouse plasma at 10 mg/kg, ip administered as single dose by mass spectrometry; format: ADME, organism-based; settings: in vivo
HepG2 [20] = assay: Induction of TRIB1 expression in human HepG2 cells measured after overnight incubation by qRT-PCR analysis; format: functional, cell-based

| AUC [1] [µg/L/h] | remaining at 1 h, 1 µM [2] [%] | Cmax [3] [ng/mL] | solubility kinetic at 18 h [4] [µM] | Vz [6] [L/kg] | half-life [7] [h] | CL/F [8] [mL/min/kg] | EC50 (HepG2 [9]) [nM] | half-life [11] [h] | Tmax [12] [h] | fraction unbound [13] | Cmax [14] [ng/mL] | AUC [15] [µg/L/h] | EC50 (HepG2 [16]) [nM] | EC50 (HepG2 [17]) [nM] | Tmax [18] [h] | Vz [19] [L/kg] | EC50 (HepG2 [20]) [nM] | Structure (SMILES) | max activation (HepG2 [5]) | max activation (HepG2 [10]) |
| --- | --- | --- | --- | --- | --- | --- | --- | --- | --- | --- | --- | --- | --- | --- | --- | --- | --- | --- | --- | --- |
| 35928 | 18 | 3050 | 27.5 (≈ 16.1 µg/mL) | 0.72 | 1.46 | 25.8 | 95 | 1.78 | 1 | 0.02 | 13800 | 6464 | 320 | 1450 | 1 | 3.25 | – | CN1C(=O)c2cc(NC(=O)c3ccc(C(F)(F)F)cc3)ccc2OC[C@@H]2O[C@H](CNc3nnc(C4CCC4)o3)CC[C@@H]21 | 4.6 | 3.8 |
| – | 0 | – | 6 (≈ 3.37 µg/mL) | – | – | – | 100 | – | – | – | – | – | 720 | 500 | – | – | – | CN1C(=O)c2cc(NC(=O)c3ccc(C(F)(F)F)cc3)ccc2OC[C@@H]2O[C@H](CNC(=O)CC(C)(C)C)CC[C@@H]21 | 6.6 | 1.9 |
| – | – | – | – | – | – | – | – | – | – | – | – | – | – | – | – | – | > 25000 | CN1C(=O)c2cc(NC(=O)c3ccc(C(F)(F)F)cc3)ccc2OC[C@H]2O[C@@H](CC(=O)NC3Cc4ccccc4C3)CC[C@@H]21 | – | – |
